Assay results taken from US7875604B2, “Compounds that inhibit HIV particle formation” (University of Virginia Patent Foundation, priority 2004, dated 2011).

Columns and labels:
[1] = test system: HIV particle formation in 5BD.1 cells; assay: Six point dose response assay of HIV particle release (p24 ELISA) in 5BD.1 cells; format: cell-based, HIV-1; conditions: for TI (TC50/IC50): TC50 MT4 cells / IC50 5BD.1 cells; for IC50: six point dose response, p24 in 5BD.1 cells, Table 1
Excerpt: The present invention is directed to a safe quantitative in vitro high-throughput assay to screen library compounds for effects on Rev-dependent p24 production. Two cell lines derived from COS cells provide the means of determining whether a library compound has anti-Rev activity-5BD.1 and 2A.22. These cell lines constitutively express HIV-like particles that contain the HIV core proteins as well as HIV envelope protein. The non-infectious virions created by these cells are secreted into the media, where a simple p24 ELISA can quantitatively determine virion production. Production of these virus-like particles is totally dependent on the expression of the Rev protein (for the 5BD.1 cell line), which is also made in these cell lines, or independent of Rev protein expression (the 2A.22 cell line).
The cell line 5BD.1 was created by transfecting COS cells with the wild type HIV-1 structural and regulatory genes gag, gagpol, rev, and env. Each of these genes is necessary but not sufficient for producing infectious HIV virions. Non-infectious virions are produced in 5BD.1 cells via the same pathways as in CD4^+ cells. Inhibition of Rev with a library compound would therefore have the same effect on viral production in 5BD.1 cells as in CD4^+ cells.
Each of the 192 compounds was then subjected to 3 and 6 point dose response assays in 5BD.1 cells and toxicity testing in the MT-4 T cell line. The dose response assay was performed as follows
• 1. 5BD.1 cells were carried in 2 T175 flasks in medium (IMDM/10% FCS/0.2 mg/ml HygromycinB/1.5 mg/ml G418/0.05 mg/ml gentamycin). Cells were trypsinized and harvested from a 90% confluent flask. • 2. 20,000 cells per well were plated into rows A-G of 8 tissue culture treated clear 96-well plates in 135 μl per well of medium without G418 (assay medium). 135 μl of medium only was added to row H. • 3. The plates were placed into the incubator for one hour. • 4. Compounds were serially diluted 1:3 two times from 1 mM DMSO stocks in DMSO in 96 well polypropylene plates. 8 μl of the DMSO solutions were transferred to another plate and 72 μl of assay medium was added. • 5. 15 μl of each diluted compound was transferred to the cell plates in duplicate with the high (10 μM final concentration in rows A-B, 3 μM concentration in rows C-D, 1 μM concentration in rows E-F and DMSO only in rows G-H). • 6. The plates were then incubated overnight for 16 hours. • 7. In the morning of the next day the medium was removed by hand from all wells. • 8. 135 μl of fresh assay medium was added to each well followed by 15 μl of diluted compounds as described in step 5. • 9. The plates were then incubated for 24 hours and the medium was harvested. p24 ELISA Assay: • 10. Dilute primary antibody to 4 μg/ml in DPBS without calcium and magnesium, add 50 μl per well of a 96 well Maxisorp plate, incubate overnight at 4° C. • 11. Aspirate coating solution, block for 30-60 minutes with 200 μl ELISA buffer (4 mg/ml BSA, 0.01% Tween20 in DPBS without calcium and magnesium). • 12. Wash plates 2×. • 13. Add 50 μl of the supernatants from step 9 above. • 14. Add 15 μl of a 1:750 dilution of biotinylated secondary antibody in 40% lysis buffer/ELISA buffer. • 15. Incubate 2 hours at room temperature with shaking. • 16. Wash plates 3×. • 17. Add 50 μL/well of a 1:10,000 dilution of detection SA-HRP. Incubate at room temperature with shaking for 30 minutes. • 18. Wash plates 3×. Add 50 μL/well of TMB substrate solution to all wells and develop for approximately 15 minutes until blue. • 19. Stop the reaction with 50 μL/well 0.18M sulfuric acid. • 20. Read plate at 450 nm. Toxicity Assays:
(§1) The six point dose assay in 5BD.1 cells was used to calculate an IC50 for the compounds and data from the MT-4 toxicity assay allowed a TC50 to be calculated.

MT4 cells = assay: MTS-based toxicity assay in MT-4 T cell line; conditions: Table 1, read-out: TC50 (the source's name)
Procedure: The dose response assay was performed as follows
MTS-based toxicity assays were performed in parallel to the 3 and 6 point dose response assays.
as §1

Compound	TI (TC50/IC50) [1]	IC50 [1] [µM]	CC50 (MT4 cells) [µM]	IC50 ([1]; Human immunodeficiency virus 1) [µM]
2-chloro-N-(4-methylphenyl)-4-(trifluoromethyl)-1,3-thazole-5-carboxamide [Compound 91161]	9.47	1.9	18	–
CCc1c(C(=O)Nc2ccccc2)c(C)nc2sc(C(N)=O)c(N)c12 [Compound 75168, 3-amino-4-ethyl-6-methyl-N˜5˜-phenylthieno[2,3-b]pyridine-2,5-dicarboxamide]	>33.3	–	> 100	3
COc1ccc2cc3c(N)n[nH]c3nc2c1 [Compound 89246, 7-methoxy-1H-pyrazolo[3,4-b]quinolin-3-ylamine]	22.22	–	20	0.9
CCc1c(C)nc2sc(C(N)=O)c(N)c2c1C [Compound 103833, 3-amino-5-ethyl-4,6-dimethylthieno[2,3-b]pyridine-2-carboxamide]	35.6	–	32	0.9
COc1ccc2nc(C(F)(F)F)c(C#N)c(N)c2c1 [Compound 104366, 4-amino-6-methoxy-2-(trifluoromethyl)-3-quinolinecarbonitrile]	11.2	–	28	2.5
CS(=O)(=O)c1ncc(-c2ccc(Br)cc2)cn1 [Compound 107129, -(4-bromophenyl)-2-(methylsulfonyl)pyrimidine]	40.0	–	10	0.25
COc1cccc(NC(=O)c2cc(Cl)nnc2Cl)c1 [Compound 107740, 3,6-dichloro-N-(3-methoxyphenyl)-4-pyridazinecarboxamide]	10.2	–	50	4.9
Fc1ccc(Nc2ncnc3ccccc23)cc1Cl [Compound 109020, N-(3-chloro-4-fluorophenyl)-N-(4-quinazolinyl)amine]	33.3	–	–	3
